According to patent US20240199546A1, “INHIBITORS OF SOLUTE CARRIER FAMILY 6A MEMBER 19 (SLC6A19) AND METHODS OF USE THEREOF” (Maze Therapeutics, Inc., priority 2022, published 2024):

Molecular target: T1, human SLC6A19 and TMEM27 (Homo sapiens, UniProt Q695T7)
T1 construct: expressed in transfected cells
T1 sequence (Q695T7 1-634): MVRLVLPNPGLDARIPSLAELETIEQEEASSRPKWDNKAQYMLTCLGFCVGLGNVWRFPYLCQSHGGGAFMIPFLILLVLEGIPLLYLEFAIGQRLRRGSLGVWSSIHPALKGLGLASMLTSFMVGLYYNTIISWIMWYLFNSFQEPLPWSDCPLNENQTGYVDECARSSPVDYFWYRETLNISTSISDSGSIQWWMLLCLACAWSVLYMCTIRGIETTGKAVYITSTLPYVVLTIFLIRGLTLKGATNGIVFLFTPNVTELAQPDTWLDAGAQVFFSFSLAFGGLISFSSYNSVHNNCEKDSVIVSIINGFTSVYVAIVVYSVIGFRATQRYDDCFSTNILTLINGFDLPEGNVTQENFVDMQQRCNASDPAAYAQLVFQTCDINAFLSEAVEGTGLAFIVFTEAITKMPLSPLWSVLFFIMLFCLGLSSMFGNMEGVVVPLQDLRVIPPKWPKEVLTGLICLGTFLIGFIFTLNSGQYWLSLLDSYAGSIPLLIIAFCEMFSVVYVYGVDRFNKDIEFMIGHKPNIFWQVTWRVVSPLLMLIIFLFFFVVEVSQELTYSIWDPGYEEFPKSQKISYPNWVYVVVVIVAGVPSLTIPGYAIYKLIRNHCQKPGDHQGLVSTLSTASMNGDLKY
T1 sequence (Q9HBJ8 15-222 partner): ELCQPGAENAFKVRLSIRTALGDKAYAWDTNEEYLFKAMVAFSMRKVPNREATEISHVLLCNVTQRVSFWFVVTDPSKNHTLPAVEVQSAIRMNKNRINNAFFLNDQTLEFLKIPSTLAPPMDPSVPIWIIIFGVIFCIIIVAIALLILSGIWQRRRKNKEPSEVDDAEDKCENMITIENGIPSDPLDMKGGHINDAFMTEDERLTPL
Experiment: Radiolabelled (3H) leucine uptake in CHO cells with doxycycline-inducible expression of human SLC6A19 and TMEM27 (Example B-1)
Type: cell-based
Settings: CHO cells with doxycycline-inducible expression of human SLC6A19 and TMEM27, read-out: SLC6A19_Radioligand Uptake Assay IC50
In short: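 CHO cells were induced with doxycycline for 18 h at 37 °C, washed in HBSS, then exposed to compounds for 1 h: 8-point, 3-fold dilutions in duplicate, 0.5% DMSO final. Uptake measured by scintillation counting after 2 h shaking. Activity normalized with positive control as 0% and DMSO as 100%.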

Row | Compound | IC50 [nM]
1 | [2H]C([2H])([2H])C(=O)NCc1cc2cc(F)c(OCc3cscn3)cc2[nH]1 [Compound 566, N-((5-fluoro-6-(thiazol-4-ylmethoxy)-1H-indol-2-yl)methyl)acetamide-2,2,2-d3] | 146
2 | O=C(NCc1cc2cc(F)c(OCc3cscn3)cc2[nH]1)C(F)F [Compound 567, 2,2-difluoro-N-((5-fluoro-6-(thiazol-4-ylmethoxy)-1H-indol-2-yl)methyl)acetamide] | 182
3 | O=C(CC(F)(F)F)NCc1cc2cc(F)c(OCc3cscn3)cc2[nH]1 [Compound 568, 3,3,3-trifluoro-N-((5-fluoro-6-(thiazol-4-ylmethoxy)-1H-indol-2-yl)methyl)propanamide] | 337
4 | O=C(NCc1cc2cc(F)c(OCc3cscn3)cc2[nH]1)C1(C(F)F)CC1 [Compound 569, 1-(difluoromethyl)-N-((5-fluoro-6-(thiazol-4-ylmethoxy)-1H-indol-2-yl)methyl)cyclopropane-1-carboxamide] | 121
5 | [2H]C([2H])([2H])C(=O)NCc1cc2cc(Cl)c(OCc3cscn3)cc2[nH]1 [Compound 570, N-((5-chloro-6-(thiazol-4-ylmethoxy)-1H-indol-2-yl)methyl)acetamide-2,2,2-d3] | 80.4
6 | Cc1cc(COc2cc3[nH]c(CNC(=O)C4(F)CC4)cc3cc2Cl)on1 [Compound 571, N-((5-chloro-6-((3-methylisoxazol-5-yl)methoxy)-1H-indol-2-yl)methyl)-1-fluorocyclopropane-1-carboxamide] | 161
7 | Cc1cc(COc2cc3[nH]c(CNC(=O)C4(F)CC4)cc3cc2F)on1 [Compound 572, 1-fluoro-N-((5-fluoro-6-((3-methylisoxazol-5-yl)methoxy)-1H-indol-2-yl)methyl)cyclopropane-1-carboxamide] | 113
8 | Cc1cc(COc2cc3[nH]c(CNC(=O)[C@H]4CCN4C)cc3cc2Cl)on1 [Compound 575, (R)-N-((5-chloro-6-((3-methylisoxazol-5-yl)methoxy)-1H-indol-2-yl)methyl)-1-methylazetidine-2-carboxamide] | 3050
9 | Cc1cc(COc2cc3[nH]c(CNC(=O)[C@@H]4CCN4C)cc3cc2Cl)on1 [Compound 576, (S)-N-((5-chloro-6-((3-methylisoxazol-5-yl)methoxy)-1H-indol-2-yl)methyl)-1-methylazetidine-2-carboxamide] | 824
10 | Cc1cc(COc2cc3[nH]c(CNC(=O)[C@@H]4CCCN4C)cc3cc2Cl)on1 [Compound 577, (S)-N-((5-chloro-6-((3-methylisoxazol-5-yl)methoxy)-1H-indol-2-yl)methyl)-1-methylpyrrolidine-2-carboxamide] | 1440
11 | Cc1cc(COc2cc3[nH]c(CNC(=O)[C@H]4CCCN4C)cc3cc2Cl)on1 [Compound 578, (R)-N-((5-chloro-6-((3-methylisoxazol-5-yl)methoxy)-1H-indol-2-yl)methyl)-1-methylpyrrolidine-2-carboxamide] | > 5550
12 | Cc1cc(COc2cc3[nH]c(CNC(=O)CN(C)C)cc3cc2Cl)on1 [Compound 579, N-((5-chloro-6-((3-methylisoxazol-5-yl)methoxy)-1H-indol-2-yl)methyl)-2-(dimethylamino)acetamide] | 587
13 | CN(C)CC(=O)NCc1cc2cc(Cl)c(OCc3cscn3)cc2[nH]1 [Compound 580, N-((5-chloro-6-(thiazol-4-ylmethoxy)-1H-indol-2-yl)methyl)-2-(dimethylamino)acetamide] | 620
14 | CC(=O)C(=O)NCc1cc2cc(Cl)c(OCc3cc(C)no3)cc2[nH]1 [Compound 582, N-((5-chloro-6-((3-methylisoxazol-5-yl)methoxy)-1H-indol-2-yl)methyl)-2-oxopropanamide] | 455
15 | CC1(C(=O)NCc2cc3cc(Cl)c(CCn4ccnn4)cc3[nH]2)CC1 [Compound 583, N-((6-(2-(1H-1,2,3-triazol-1-yl)ethyl)-5-chloro-1H-indol-2-yl)methyl)-1-methylcyclopropane-1-carboxamide] | 1520
16 | CC1(C(=O)NCc2cc3cc(Cl)c(CCn4ncnn4)cc3[nH]2)CC1 [Compound 584, N-((6-(2-(2H-tetrazol-2-yl)ethyl)-5-chloro-1H-indol-2-yl)methyl)-1-methylcyclopropane-1-carboxamide] | 889

Row | Compound | IC50 [nM]
17 | CC1(C(=O)NCc2cc3cc(Cl)c(CCn4cnnn4)cc3[nH]2)CC1 [Compound 585, N-((6-(2-(1H-tetrazol-1-yl)ethyl)-5-chloro-1H-indol-2-yl)methyl)-1-methylcyclopropane-1-carboxamide] | > 9230
18 | CC1(C(=O)NCc2cc3cc(Cl)c(CCn4nccn4)cc3[nH]2)CC1 [Compound 586, N-((6-(2-(2H-1,2,3-triazol-2-yl)ethyl)-5-chloro-1H-indol-2-yl)methyl)-1-methylcyclopropane-1-carboxamide] | 176
19 | COc1cc2cc(CNC(=O)C3(C)CC3)[nH]c2cc1CCn1cccn1 [Compound 587, N-((6-(2-(1H-pyrazol-1-yl)ethyl)-5-methoxy-1H-indol-2-yl)methyl)-1-methylcyclopropane-1-carboxamide] | 260
20 | COc1cc2cc(CNC(=O)C3(C)CC3)[nH]c2cc1CCn1ccnn1 [Compound 588, N-((6-(2-(1H-1,2,3-triazol-1-yl)ethyl)-5-methoxy-1H-indol-2-yl)methyl)-1-methylcyclopropane-1-carboxamide] | 3670
21 | CC1(C(=O)NCc2cc3cc(Cl)c(CCn4ccnc4)cc3[nH]2)CC1 [Compound 589, N-((6-(2-(1H-imidazol-1-yl)ethyl)-5-chloro-1H-indol-2-yl)methyl)-1-methylcyclopropane-1-carboxamide] | 4760
22 | COc1cc2cc(CNC(=O)C3(C)CC3)[nH]c2cc1CCn1nccn1 [Compound 591, N-((6-(2-(2H-1,2,3-triazol-2-yl)ethyl)-5-methoxy-1H-indol-2-yl)methyl)-1-methylcyclopropane-1-carboxamide] | 184
23 | Cc1cc(CCc2cc3[nH]c(CNC(=O)C4(C)CC4)cc3cc2F)no1 [Compound 593, N-((5-fluoro-6-(2-(5-methylisoxazol-3-yl)ethyl)-1H-indol-2-yl)methyl)-1-methylcyclopropane-1-carboxamide] | 220
24 | CC1(C(=O)NCc2cc3cc(F)c(CCc4cscn4)cc3[nH]2)CC1 [Compound 594, N-((5-fluoro-6-(2-(thiazol-4-yl)ethyl)-1H-indol-2-yl)methyl)-1-methylcyclopropane-1-carboxamide] | 120
25 | O=C(NCc1cc2cc(Cl)c(CCc3ccon3)cc2[nH]1)N1CCC1 [Compound 595, N-((5-chloro-6-(2-(isoxazol-3-yl)ethyl)-1H-indol-2-yl)methyl)azetidine-1-carboxamide] | 240
26 | O=C(NCc1cc2cc(OC(F)(F)F)c(CCc3cscn3)cc2[nH]1)N1CCC1 [Compound 596, N-((6-(2-(thiazol-4-yl)ethyl)-5-(trifluoromethoxy)-1H-indol-2-yl)methyl)azetidine-1-carboxamide] | 336
27 | O=C(NCc1cc2cc(OC(F)(F)F)c(CCc3ccon3)cc2[nH]1)N1CCC1 [Compound 597, N-((6-(2-(isoxazol-3-yl)ethyl)-5-(trifluoromethoxy)-1H-indol-2-yl)methyl)azetidine-1-carboxamide] | 307
28 | O=C(NCc1cc2cc(OC(F)(F)F)c(CCc3ccon3)cc2[nH]1)N1CCCC1 [Compound 598, N-((6-(2-(isoxazol-3-yl)ethyl)-5-(trifluoromethoxy)-1H-indol-2-yl)methyl)pyrrolidine-1-carboxamide] | 358
29 | O=C(NCc1cc2cc(Cl)c(CCc3cscn3)cc2[nH]1)N1CCC1 [Compound 599, N-((5-chloro-6-(2-(thiazol-4-yl)ethyl)-1H-indol-2-yl)methyl)azetidine-1-carboxamide] | 163
30 | O=C(NCc1cc2cc(F)c(CCc3cscn3)cc2[nH]1)N1CCC1 [Compound 600, N-((5-fluoro-6-(2-(thiazol-4-yl)ethyl)-1H-indol-2-yl)methyl)azetidine-1-carboxamide] | 145
31 | O=C(NCc1cc2cc(F)c(CCc3cscn3)cc2[nH]1)N1CCCC1 [Compound 601, N-((5-fluoro-6-(2-(thiazol-4-yl)ethyl)-1H-indol-2-yl)methyl)pyrrolidine-1-carboxamide] | 174
32 | CC1(C(=O)NCc2cc3cc(OC(F)F)c(OCc4cscn4)cc3[nH]2)CC1 [Compound 604, N-((5-(difluoromethoxy)-6-(thiazol-4-ylmethoxy)-1H-indol-2-yl)methyl)-1-methylcyclopropane-1-carboxamide] | 391
